US4282248A, “Pinene derivatives and pharmaceutical compositions containing the same” (priority 1978, dated 1981)

What was measured:
Format in all cases: in vivo
[1] = acetic acid induced writhing test (mouse writhing); settings: for ED50: Mus musculus
Experimental: (§1) The analgetic activity was tested by the acetic acid induced writhing test (Sofia et al., J. Pharmacol.Expt.Therap. 18, 646, 1973), by the tail flick test (Grotto et al., Arch Intern.Pharmacodyn. 170, 257, 1967) and by the foot pressure test (Randall and Selito, Arch, Int. Pharmacodyn. 409, 1957). The central nervous system action was tested by the mouse ring test (Pertwee, Brit. J. Pharmacol. 46, 753, 1972).

[2] = tail flick test (mouse tail flick); settings: for ED50: Mus musculus
Experimental: as §1

[3] = foot pressure test (rat foot pressure); settings: for ED50: Rattus norvegicus
Experimental: as §1

Compound	ED50 [1]	ED50 [2]	ED50 [3]	Mouse writhing ED50 [1]	Mouse tail flick ED50 [2]	Rat foot pressure ED50 [3]
CCCCCCC(C)(C)c1cc(OC(C)=O)c(C2C=C(COC(C)=O)C3CC2C3(C)C)c(OC(C)=O)c1 (single isomer, unassigned) [VIIIa(+), 4-Trans-[2-(5-(1,1-dimethylheptyl)-resorcyl)]-10-hydroxy-pin-2-ene triacetate]	18 mg/kg	50 mg/kg	50 mg/kg	–	–	–
CCCCCCC(C)(C)c1cc(OC(C)=O)c(C2C=C(COC(C)=O)C3CC2C3(C)C)c(OC(C)=O)c1 (single isomer, unassigned) [VIIIa(-), 4-trans-[2-(5-(1,1-dimethylheptyl)-resorcyl)]-10-hydroxy-pin-2-ene, triacetate]	–	–	–	18 mg/kg	30 mg/kg	50 mg/kg
CCCCCC(C)C(C)c1cc(OC(C)=O)c(C2C=C(COC(C)=O)C3CC2C3(C)C)c(OC(C)=O)c1 (single isomer, unassigned) [VIIIb(+), 4-Trans-[2-(5-(1,2-dimethylheptyl-resorcyl)]-10-hydroxy-pin-2-ene, triacetate]	10 mg/kg	50 mg/kg	50 mg/kg	–	–	–
CCCCCC(C)C(C)c1cc(OC(C)=O)c(C2C=C(COC(C)=O)C3CC2C3(C)C)c(OC(C)=O)c1 (single isomer, unassigned) [VIIIb(-), 4-trans-[2-(5-(1,2-dimethylpheptyl)]-resorcyl)-10-hydroxy-pin-2-ene, triacetate]	–	–	–	10 mg/kg	30 mg/kg	50 mg/kg
CCCCCCC(C)(C)c1cc(OC(C)=O)c(C2C=C(COC(=O)C(C)(C)C)C3CC2C3(C)C)c(OC(C)=O)c1 (single isomer, unassigned) [VIIIc(+)]	25 mg/kg	> 50 mg/kg	> 50 mg/kg	–	–	–
CCCCCCC(C)(C)c1cc(OC(C)=O)c(C2C=C(COC(=O)C(C)(C)C)C3CC2C3(C)C)c(OC(C)=O)c1 (single isomer, unassigned) [VIIIc(-)]	–	–	–	25 mg/kg	> 50 mg/kg	> 50 mg/kg
CCCCCC(C)C(C)c1cc(OC(C)=O)c(C2C=C(COC(=O)C(C)(C)C)C3CC2C3(C)C)c(OC(C)=O)c1 (single isomer, unassigned) [VIIId(+), 4-trans-[2-(5-(1,2-dimethylheptyl)-resorcyl diacetate)]-10-hydroxy-pin-2-ene-10-pivalate]	25 mg/kg	> 50 mg/kg	> 50 mg/kg	–	–	–
CCCCCC(C)C(C)c1cc(OC(C)=O)c(C2C=C(COC(=O)C(C)(C)C)C3CC2C3(C)C)c(OC(C)=O)c1 (single isomer, unassigned) [VIIId(-), 4-trans-[2-(5-(1,2-dimethylheptyl)-resorcyl diacetate)]-10-hydroxy-pin-2-ene-10-pivalate]	–	–	–	25 mg/kg	> 50 mg/kg	> 50 mg/kg
CCCCCCC(C)(C)c1cc(O)c(C2C=C(CO)C3CC2C3(C)C)c(O)c1 (single isomer, unassigned) [VIIa(+), 4-Trans-[2-(5-(1,1-dimethylheptyl)-resorcyl)]-10-hydroxy-pin-2-ene]	5 mg/kg	–	15 mg/kg	–	30 mg/kg	–
CCCCCCC(C)(C)c1cc(O)c(C2C=C(CO)C3CC2C3(C)C)c(O)c1 (single isomer, unassigned) [VIIa(-), 4-trans-[2-(5-(1,1-dimethylheptyl)-resorcyl)]-10-hydroxy-pin-2-ene]	–	–	–	7 mg/kg	6 mg/kg	25 mg/kg
CCCCCC(C)C(C)c1cc(O)c(C2C=C(CO)C3CC2C3(C)C)c(O)c1 (single isomer, unassigned) [VIIb(+), 4-Trans[2-(5-(1,2-dimethylheptyl)-resorcyl)]-10-hydroxy-pin-2-ene]	5 mg/kg	–	15 mg/kg	–	30 mg/kg	–
CCCCCC(C)C(C)c1cc(O)c(C2C=C(CO)C3CC2C3(C)C)c(O)c1 (single isomer, unassigned) [VIIb(-), 4-Trans-[2-(5-(1,2-dimethyheptyl)-resorcyl)]-10-hydroxy-pin-2-ene]	–	–	–	7 mg/kg	6 mg/kg	25 mg/kg
CCCCCCC(C)(C)c1cc(O)c(C2C=C(COC(C)=O)C3CC2C3(C)C)c(O)c1 (single isomer, unassigned) [VIa(+)]	10 mg/kg	–	35 mg/kg	–	30 mg/kg	–
CCCCCCC(C)(C)c1cc(O)c(C2C=C(COC(C)=O)C3CC2C3(C)C)c(O)c1 (single isomer, unassigned) [VIa(-)]	–	–	–	10 mg/kg	10 mg/kg	25 mg/kg
CCCCCC(C)C(C)c1cc(O)c(C2C=C(COC(C)=O)C3CC2C3(C)C)c(O)c1 (single isomer, unassigned) [VIb(+)]	10 mg/kg	–	35 mg/kg	–	30 mg/kg	–
CCCCCC(C)C(C)c1cc(O)c(C2C=C(COC(C)=O)C3CC2C3(C)C)c(O)c1 (single isomer, unassigned) [VIb(-)]	–	–	–	10 mg/kg	10 mg/kg	25 mg/kg
CCCCCCC(C)(C)c1cc(O)c(C2C=C(COC(=O)C(C)(C)C)C3CC2C3(C)C)c(O)c1 (single isomer, unassigned) [VIc(+)]	10 mg/kg	–	30 mg/kg	–	–	–
CCCCCCC(C)(C)c1cc(O)c(C2C=C(COC(=O)C(C)(C)C)C3CC2C3(C)C)c(O)c1 (single isomer, unassigned) [VIc(-)]	–	–	–	< 10 mg/kg	10 mg/kg	30 mg/kg
CCCCCC(C)C(C)c1cc(O)c(C2C=C(COC(=O)C(C)(C)C)C3CC2C3(C)C)c(O)c1 (single isomer, unassigned) [VId(+), 4-trans-[2-(5-(1,2-dimethylheptyl)-resorcyl)]-10-hydroxy-pin-2-ene, 10 pivalate]	10 mg/kg	–	30 mg/kg	–	–	–
CCCCCC(C)C(C)c1cc(O)c(C2C=C(COC(=O)C(C)(C)C)C3CC2C3(C)C)c(O)c1 (single isomer, unassigned) [VId(-), 4-trans-[2-(5-(1,2-dimethylheptyl)-resorcyl)]-10-hydroxy-pin-2-ene, 10 pivalate]	–	–	–	< 10 mg/kg	10 mg/kg	30 mg/kg
CCCCCC(C)C(C)c1cc(O)c(C2CC(C)C3CC2C3(C)C)c(O)c1 (single isomer, unassigned) [Xb(-), 4-Trans-[-(5-(1,2-dimethylheptyl)-resorcyl)]-pinane]	6 mg/kg	~50 mg/kg	~50 mg/kg	–	–	–
CCCCCCC(C)(C)c1cc(O)c(C2CC(C)C3CC2C3(C)C)c(O)c1 (stereo not drawn) [Xa(+), 4-Trans-[2-(5-(1,1-dimethylheptyl)-resorcyl)]-pinane]	–	–	–	15 mg/kg	~ 50 mg/kg	~ 50 mg/kg
CCCCCCC(C)(C)c1cc(O)c(C2CC(C)C3CC2C3(C)C)c(O)c1 (stereo not drawn) [Xa(-), 4-trans-[2-(5-(1,1-dimethylheptyl)-resorcyl)]-pinane]	–	–	–	9 mg/kg	~ 50 mg/kg	~ 50 mg/kg
CCCCCC(C)C(C)c1cc(O)c(C2CC(C)C3CC2C3(C)C)c(O)c1 (stereo not drawn) [Xb(+), 4-Trans-[-(5-(1,2-dimethylheptyl)-resorcyl)]-pinane]	–	–	–	6 mg/kg	~ 50 mg/kg	~ 50 mg/kg
